Results from patent publication US7871635B2, “Use of compound that inactivates protein kinase A in a composition containing a cosmetically acceptable medium for lightening the skin” (Societe d'Exploitation de Produits pour les Industries …, priority 2002, dated 2011).

Columns and labels:
[1] = test system: B16/F1 melanocyte cultures; assay: Extracellular melanin content in B16/F1 melanocyte cultures; assay type: cell-based, mouse; conditions: 72 hours; for Extracellular melanin: control 43 ± 11 μg/ml
Experimental: Mouse melanocytes of the B16/F1 line are inoculated in 96-well culture plates at a density of 1500 cells/well. […] The cells are used at 60% of confluence, i.e. 4 days after inoculation. The MCM medium has the following composition: […] N-Undecylenoylphenylalanine is diluted to 4 mg/ml in decinormal aqueous sodium hydroxide solution. It is tested at 40 μg/ml in the MCM medium. Sodium hydroxide has no effect on the parameters analyzed. […] Given its toxicity, it is not tested at 40 μg/ml. […] Control cultures are incubated, in the absence of product, in the MCM medium. These control cultures are prepared on each culture plate. Each test is performed six times. After incubation for 72 hours, the incubation media of the cells (n=6) are taken up and stored at -80° C. until the time of evaluation of the effects. The extracellular melanin is quantified by spectrophotometry at 450 nm. A melanin calibration range is prepared in parallel. The results are expressed as μg/ml of extracellular […] a percentage of inhibition relative to the control group.

[2] = test system: B16/F1 melanocyte cultures; assay: Intracellular melanin content in B16/F1 melanocyte cultures; assay type: cell-based, mouse; conditions: 72 hours; for Intracellular melanin obtained: control 20 ± 4 μg/ml
Experimental: Mouse melanocytes of the B16/F1 line are inoculated in 96-well culture plates at a density of 1500 cells/well. […] The cells are used at 60% of confluence, i.e. 4 days after inoculation. The MCM medium has the following composition: […] N-Undecylenoylphenylalanine is diluted to 4 mg/ml in decinormal aqueous sodium hydroxide solution. It is tested at 40 μg/ml in the MCM medium. Sodium hydroxide has no effect on the parameters analyzed. […] Given its toxicity, it is not tested at 40 μg/ml. […] Control cultures are incubated, in the absence of product, in the MCM medium. These control cultures are prepared on each culture plate. Each test is performed six times. After incubation for 72 hours, a portion of the cell carpet (n=3) is rinsed with phosphate-buffered saline (PBS; pH=7.4), the composition of which is as follows: NaCl: 8 g/l, Na2HPO4: 1.15 g/l; […] The intracellular melanin is quantified by spectrophotometry at 450 nm. A melanin calibration range is prepared in parallel. The results are expressed as μg/ml of intracellular melanin and as a percentage of inhibition relative to the control group.

[3] = test system: B16/F1 melanocyte cultures; assay: Intracellular protein content (cytotoxicity) in B16/F1 melanocyte cultures; assay type: cell-based, mouse
Experimental: Mouse melanocytes of the B16/F1 line are inoculated in 96-well culture plates at a density of 1500 cells/well. […] The cells are used at 60% of confluence, i.e. 4 days after inoculation. The MCM medium has the following composition: […] N-Undecylenoylphenylalanine is diluted to 4 mg/ml in decinormal aqueous sodium hydroxide solution. It is tested at 40 μg/ml in the MCM medium. Sodium hydroxide has no effect on the parameters analyzed. […] Given its toxicity, it is not tested at 40 μg/ml. […] Control cultures are incubated, in the absence of product, in the MCM medium. These control cultures are prepared on each culture plate. Each test is performed six times. This assay allows the cytotoxicity of the test products to be evaluated. It is performed in cell lysates prepared as described in the preceding paragraph. The protein assay is performed according to the Coomassie blue method described by: “Bradford M.; Anal. Biochem., 72, 1976, 248-254”. The measurement is performed by spectrophotometry at 640 nm. A bovine serum albumin (BSA) calibration range is prepared in parallel. The results are expressed as mg/ml of proteins and as a percentage of inhibition relative to the control group.

[4] = test system: Pigmented human epidermides (phototype IV); assay: Chromametric measurement of the epidermal pigmentation in reconstructed human epidermides; assay type: cell-based; conditions: for L* (% of the control group) / a* (% of the control group) / b* (% of the control group) / b* / a* / L*: topical, 4 days; for b*: control 7.54 ± 0.00 AU; for a*: control 10.23 ± 0.51 AU; for L*: control 41.38 ± 0.69 AU
Experimental: Pigmented human epidermides (phototype IV) supplied by Skinethic, of 0.63 cm^2, are reconstructed from a coculture of normal human keratinocytes (skin of the forearm, donor, 2nd passage) and from normal human melanocytes (skin of the forearm, donor of phototype IV, 3rd passage). The keratinocyte/melanocyte ratio is 10:1. The cocultures are inoculated onto inert polycarbonate filters. They are cultured for 10 days in the medium supplied by Skinethic, consisting of MCDB 153 medium supplemented with 5 μg/ml of insulin, 1.5 mM of calcium and growth factors. […] The epidermides are cultured in 6-well plates containing 1 ml of the medium described above. […] The application is performed every day for 4 consecutive days. The incubation medium of the reconstructed epidermides is renewed every day for 4 consecutive days. Control epidermides are treated with a formulation free of active principle. Each test is performed in duplicate. Three days after the final topical application, the color of the epidermides is evaluated using a chromameter (Minolta) by measuring the following parameters L*, a* and b*: • L* is the lightness index. A depigmenting product should increase this parameter; • a* represents the color spectrum from […]. A depigmenting product should reduce this parameter; • b*: represents the color spectrum from […]. A depigmenting product should reduce this parameter. The results are expressed in arbitrary units (AU) of each parameter and as a percentage of the control group.

tyrosinase = assay: Study of phosphorylated tyrosinase activity (L-tyrosine to dopaquinone, 490 nm); assay type: biochemical, fungi; conditions: tyrosinase 66.66 IU/ml, tyrosine 0.2 mM, 10 minutes at 37° C.
Experimental: The tyrosinase used is a commercial product extracted from fungi. […] Sodium hydroxide has no effect on the parameter studied. […] Control cultures are incubated, in the absence of product, and in the presence of tyrosinase and L-tyrosine. Each test is performed in triplicate. After incubation for 10 minutes, the amount of dopaquinone […] formed is measured using a spectrophotometer at 490 nm. The results given in the table below are the means of the three tests performed for each of the products. They are expressed as IU/l of tyrosinase activity and as a percentage of inhibition of the enzymatic activity relative to the control.

[5] = Mus musculus, B16-F1, at 40 μg/ml, read-out: Inhibition of extracellular melanin production
[6] = Mus musculus, B16-F1, at 40 μg/ml, read-out: Inhibition of intracellular melanin production
[7] = topical application at 1% and 3% (w/v) in an emulsion
[8] = at 40 μg/ml, 72 hours, control 0.45 ± 0.01

Structure (SMILES) | inhibition at 40 µg/mL [1, 5] [%] | Extracellular melanin ([1]; at 40 μg/ml) [µg/mL] | inhibition at 40 µg/mL [2, 6] [%] | Intracellular melanin obtained ([2]; at 40 μg/ml) [µg/mL] | L* (% of the control group) ([4]; formulated at 1% (w/v)) | a* (% of the control group) ([4]; formulated at 1% (w/v)) | b* (% of the control group) ([4]; formulated at 1% (w/v)) | b* ([4]; formulated at 1% (w/v)) [AU] | a* ([4]; formulated at 1% (w/v)) [AU] | L* ([4]; formulated at 1% (w/v)) [AU] | L* (% of the control group) ([4]; formulated at 3% (w/v)) | a* (% of the control group) ([4]; formulated at 3% (w/v)) [%] | b* (% of the control group) ([4]; formulated at 3% (w/v)) | b* ([4]; formulated at 3% (w/v)) [AU] | a* ([4]; formulated at 3% (w/v)) [AU] | L* ([4]; formulated at 3% (w/v)) [AU] | effect on the chromametric parameters L*, a* and b* [4, 7] | Percentage of inhibition of tyrosinase activity with the test products relative to the control (tyrosinase; at 0.1 mg/ml) [%] | Percentage of inhibition of tyrosinase activity with the test products relative to the control (tyrosinase; at 1 mg/ml) [%] | Total proteins [3, 8] [mg/mL] | also measured
O=c1cc(CO)occ1O [Kojic acid, kojic acid] | 70 | 13 ± 2 | 17 | 17 ± 1 | +3% | +7% | +3% | 7.67 ± 0.03 | 10.90 ± 0.51 | 40.11 ± 1.41 | 0% | −8 | −5% | 7.13 ± 0.09 | 9.36 ± 1.02 | 41.69 ± 0.65 | no significant effect | – | – | – | Total proteins ([3]; mouse, 72 h, 40 μg/ml): 0.41 ± 0.02 mg/mL
C=CCCCCCCCCC(=O)NC(Cc1ccccc1)C(=O)O (centres unmarked) [N-Undecylenoylphenylalanine, N-(ω-undecylenoyl)phenylalanine] | 72 | 12 ± 1 | 66 | 7 ± 3 | 0% | −12% | −21% | 5.96 ± 0.42 | 9.01 ± 1.33 | 41.34 ± 1.15 | +9% | −14 | −29% | 5.38 ± 0.06 | 8.78 ± 0.52 | 45.228 ± 1.49 | – | 80 | 100 | 0.38 ± 0.01 | Inhibition of protein quantity ([3]; at 40 μg/ml, 72 hours): 17%; reduction of the a* color parameter ([4]; concentration of 3% (w/v)): 14%; reduction of the b* color parameter ([4]; concentration of 3% (w/v)): 29%; L* (% of the control group) ([4]; formulated at 3% (w/v), listed as N-undecylenoylphenylalanine): 9%; inhibition of the b* color parameter ([4]; topical application at 1% (w/v) in an emulsion): 15%
OC[C@H]1O[C@@H](Oc2ccc(O)cc2)[C@H](O)[C@@H](O)[C@@H]1O [Arbutin, arbutin] | 47 | 23 ± 6 | 19 | 16 ± 2 | +2% | −2% | +1% | 7.64 ± 0.19 | 10.02 ± 0.13 | 40.48 ± 0.85 | +1% | −4 | +3% | 7.73 ± 0.34 | 9.86 ± 0.18 | 41.13 ± 0.54 | no significant effect | 73 | 80 | 0.43 ± 0.01 | –
Oc1ccc(O)cc1 [Hydroquinone, hydroquinone] | – | – | – | – | – | – | – | – | – | – | – | – | – | – | – | – | – | 78 | 80 | – | inhibition at 5 µg/mL ([1]; Mus musculus, B16-F1, at 5 μg/ml, read-out: Inhibition of extracellular melanin production): 85%; Extracellular melanin ([1]; at 5 μg/ml): 7 ± 1 µg/mL; inhibition at 5 µg/mL ([2]; Mus musculus, B16-F1, at 5 μg/ml, read-out: Inhibition of intracellular melanin production): 100%; Intracellular melanin obtained ([2]; at 5 μg/ml): 0.2 ± 0.1 µg/mL; Inhibition of protein quantity ([3]; mouse, 72 h, 5 μg/ml): 38%; Total proteins ([3]; mouse, 72 h, 5 μg/ml): 0.28 ± 0.01 mg/mL; L* (% of the control group) ([4]; formulated at 0.1% (w/v)): −9%; a* (% of the control group) ([4]; formulated at 0.1% (w/v)): 0%; b* (% of the control group) ([4]; formulated at 0.1% (w/v)): +3%; b* ([4]; formulated at 0.1% (w/v)): 7.73 ± 0.03 AU; a* ([4]; formulated at 0.1% (w/v)): 10.19 ± 1.21 AU; L* ([4]; formulated at 0.1% (w/v)): 40.59 ± 2.41 AU; effect on the chromametric parameters L*, a* and b* ([4]; topical application at 0.1% (w/v) in an emulsion): no significant effect
